{"source": "patent US11998610B2", "about": "“Conjugates and methods of using the same” (Flagship Pioneering Innovations V, Inc., priority 2018, dated 2024)", "key": {"[1]": {"system": "E. coli CFT073 ATCC 700928 and/or E. coli Nissle 1917", "assay": "Cell-based assay with ClbP with LCMS, ClbP positive strain", "details": "ClbP-encoding E. coli, 10 μM compound, 37° C., 20 h", "in_short": "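Compound (10 μM final) incubated 20 h at 37° C, aerobically, with 1:40-diluted overnight cultures of ClbP-positive E. coli or negative BL21(DE3), in duplicate, alongside uninoculated LB. Remaining parent quantified by LC-MS/MS (MRM) after acetonitrile quench, expressed as percent of media-alone.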"}, "WT ClbP": {"system": "WT ClbP", "assay": "Assay with purified ClbP protein (LCMS)", "assay_type": "biochemical, E. coli", "details": "20 μM WT ClbP, 100 μM compound, room temperature, 24 h", "procedure": "This example is representative of the method described in Example 91 the soluble peptidase domain (amino acids 38 to 375) of ClbP or the catalytically inert mutant S95A was cloned into pET28a using previously defined boundaries as a starting point (Brotherton, J. Am. Chem. Soc., 135:3359-3362, 2013).\nWT ClbP or S95A ClbP was isolated as an N-terminally tagged HiS6-SUMO1-fusion protein from […] using E. coli BL21(DE3)RIPL to express the protein. The cells were lysed in 30 mM Tris pH 8.0, 300 mM NaCl, 10% (v/v) glycerol, benzonase (Sigma-Millipore), lysozyme, B-per (ThermoFisher), and Y-per (ThermoFisher). The lysate was clarified via centrifugation (13,000 g, 20 min), and the supernatant was incubated with HiBond Ni-NTA agarose (5 mL). The resin was subsequently washed with wash buffer (30 mM Tris pH 7.5, 250 mM NaCl, 10 mM imidazole, 3% (v/v) glycerol, and 2 mM TCEP). The resin was incubated at 30° C. for 1 h with 1.4 mg ULP1 protease. The resin was then washed with an additional fraction of wash buffer. Centrifuge filtration was used to concentrate the protein, and the concentrated protein was subsequently applied to a 16/600 Superdex 200 size exclusion column with an isocratic elution of 25 mM HEPES, 25 mM Tris pH 7.4, 325 mM NaCl, 10 mM KCl and 3% (v/v) glycerol at a flow rate of […]. The fractions containing the protein were determined by SDS-PAGE, combined, and concentrated by centrifuge filtration. 3 mM TCEP was added to the concentrated protein, which was then aliquoted, flash frozen in liquid N2, and stored at −80° C.\nThis example is representative of the method described in Example D, ClbP was incubated with test compounds in an in vitro assay. In a typical assay, 0, 1, or 20 μM purified WT or S95A ClbP was incubated with 100 or 500 μM compound in reaction buffer (50 mM Tris-HCl pH 7.5, 37.5 mM NaCl) at room temperature for 24 h. The total volume of this reaction was 150 μL.\nAfter 24 h, 2 volumes of acetonitrile (300 μL) were added to the reaction to quench the solution.\nThe reaction was centrifuged (4,000 g, 15 min), and then the supernatant was analyzed by LCMS. 5 μL of the supernatant was injected onto an Acquity UPLC BEH C18 1.7 μm 2.1×100 column. Buffer A was 0.1% (v/v) formic acid in water and buffer B was 0.1% (v/v) formic acid in acetonitrile. The flow rate was 0.5 mL/min. The initial % B was 10, which was held for 30 s then ramped up to 90% B over 3 min, held at 90% B for 1 min, ramped down to 10% B over 15 s, and then held at 10% B for 15 s. The UV-Vis spectrum from 210-400 nm was monitored with 3.6 nm resolution. Positive and negative mode ESI were monitored from 100-1000 m/z with a 20 V cone voltage at 5 Hz sampling frequency in centroid collection.\nThe relative starting material remaining in the WT ClbP reaction was determined by LCMS and then compared to the residual starting material in the no-enzyme and catalytically inert enzyme (S95A ClbP) reactions. In an ideal case, the amount of residual starting material in the WT ClbP reaction was <25% of the amount in the S95A ClbP and no-enzyme conditions. In an acceptable case, the amount of residual starting material in the WT ClbP reaction was 25-75% of the amount in the S95A ClbP and no-enzyme conditions. In a non-preferred case, the amount of residual starting material in the WT ClbP reaction was >75% of the amount in the S95A ClbP and no-enzyme conditions.\nFormation of the anticipated product was likewise quantified by LCMS analysis and confirmed by coelution with an external product standard. In an ideal case, the amount of product formed in the WT ClbP reaction corresponded to >75% of the theoretical maximum. In an acceptable case, the amount of product formed in the WT ClbP reaction corresponded to 25-75% of the theoretical maximum. In a non-preferred case, the amount of product formed in the WT ClbP reaction corresponded to <25% of the theoretical maximum."}}, "data": [{"smiles": "CCCCCCCCCCCCCC(=O)N[C@H](CC(N)=O)C(=O)Nc1ccc(COC)cc1", "note": "[Example 22, (R)—N1-(4-(methoxymethyl)phenyl)-2-tetradecanamidosuccinamide]", "values": [{"measurement": "% Remaining in ClbP Positve Relative to Media-Only", "setting": "[1]", "result": "− (>75% compound remaining in the 20 μM WT ClbP reaction relative to the no-enzyme control)"}, {"measurement": "Status (compound remaining in WT ClbP reaction relative to no-enzyme control)", "setting": "WT ClbP", "result": "+ (between 25-75% compound remaining in the 20 μM WT ClbP reaction relative to the no-enzyme control)"}]}]}
